Assay [1] relates to basophils. As to the kind of experiment: Basophil activation test (BAT) by flow cytometry. In kind it is cell-based, human. The conditions noted are these: for BAT result (stimulation index): 5, 1 and 0.2 mM, 25 patients selective for CLV and 15 tolerant controls, positive at the highest concentration, FIG. 3; for stimulation indices in patients compared to controls: 8, 4, 2, 1 mM, 7 patients positive for Clav 2 vs 6 controls, p=0.003 Clav 2 and p=0.015 Clav 5 at 8 mM, p=0.015 Clav 2 at 4 mM, FIG. 5. An excerpt: The “basophil activation test” or “BAT” is an in vitro functional test which detects the activation of basophils after a stimulus with a specific antigen by detecting the expression of cell surface activation markers, which is usually monitored by flow cytometry using fluorescent monoclonal antibodies. Therefore, this test is used for the in vitro diagnosis of allergies. The technique comprises several steps: drawing blood and preparing the solution or suspension, performing stimulation with allergen(s), performing cellular marking with fluorescent antibodies which discriminate activated basophils, and performing counting in a flow cytometer. The technique can be carried out using as the substrate whole blood or the buffy coat previously isolated from the whole blood sample.
The BAT was performed as described by Torres M J et al. (Torres M J, et al. Clin Exp Allergy 2004; 34:1768-75) with CLV (Sigma Aldrich, Saint Louis, USA). […] The cells were stained with monoclonal antibodies, anti-CD63-FITC, CD203c-PE, CCR3-APC (Caltag Laboratories, Burlingame, Calif.), and measured in a FACSCalibur flow cytometer (Becton-Dickinson Bioscience, San José, Calif.) acquiring at least 500-1000 basophils per sample. The results were analyzed with FlowJo® software (Tree Star, Inc. USA), and the activation was expressed as a stimulation index (SI), calculated as the ratio between the percentage of activated basophils (CD63+ or CD203c+cells) in samples stimulated with different haptenes and non-stimulated sample. To calculate the SI, the percentage of spontaneously activated basophils was required to be equal to or greater than 5%, as described by Sanz M L et al. (Sanz M L, et al. Clin Exp Allergy 2002; 32:277-86).
(A flow cytometer gives signals particle by particle.)

The test system of assay [2] is IgE-mediated basophil activation pathway. In words: BAT with wortmannin (WTM) inhibition of the IgE-mediated basophil activation pathway. It is filed as cell-based, human. The note with it: WTM 1 μM; 8 mM: p=0.002 Clav2, p=0.001 Clav 5; 4 mM: p=0.001 both; FIG. 7. As to the method:
To confirm that the activation of basophils was mediated by IgE, the inhibitory effect of wortmannin at 1 μM was analyzed. Wortmannin acts as a specific inhibitor of phosphatidylinositol 3-kinase (Pl3-K), which has proven to be one of the most important FceRI receptor-activated kinases involved in human basophil IgE-mediated stimulation. This was used with the positive control (anti-IgE) and the different haptenes and synthesized structures at the same concentrations described above.

Where [3] appears, read: 15 tolerant subjects, cutoff SI CLV >1.5, Clav 2 >3 (ROC curves), FIG. 4.
[4] abbreviates: 25 patients selective for CLV, cutoff SI CLV >1.5, Clav 2 >3 (ROC curves), FIG. 4.
Setting [5] is: 6 tolerant controls, same cutoff point, FIG. 6.
Where [6] appears, read: 7 patients positive for Clav 2 in the preceding test, same cutoff point, FIG. 6.

The values below come from patent US20200055808A1, “COMPOSITION FOR USE IN DETECTING AN ALLERGY TO CLAVULANIC ACID” (SERVICIO ANDALUZ DE SALUD, priority 2016, published 2020).

Consider `O=C(O)[C@H]1/C(=C/CO)O[C@@H]2CC(=O)N21` [CLV, (3R,5R,Z)-2-(2-hydroxyethylidene)-7-oxo-1-oxa-4-aza-bicyclo[3.2.0]heptane-3-carboxylic acid, reference compound], for which the “percentage of positive cases in BAT” value came to 13.3% in assay [1] (setting [3]) and 24% in assay [1] (setting [4]).
In the case of `NCCC(=O)O` [Clav 4, 3-aminopropanoic acid], in assay [1] (first phase), the “BAT result (stimulation index)” value is “only Clav 2 provided positive results”.
As for `CCOC(CC(=O)OC(=O)CC(OCC)OCC)OCC` [Clav 5, 3,3-diethoxypropanoic anhydride], the “percentage of positive cases in BAT” value is on record as 28.6% in assay [1] (setting [5]) and 71.4% in assay [1] (setting [6]). The “stimulation indices in patients compared to controls” value in assay [1] is “higher stimulation indices”. For the same compound, the “basophil activation after prior incubation with WTM” value in assay [2] was “IgE-mediated and specific”.
For `CCCCNC(=O)CC(OC)OC` [Clav 1, N-butyl-3,3-dimethoxypropanamide], the “BAT result (stimulation index)” value in assay [1] (first phase) is “only Clav 2 provided positive results”.
For the compound `CC(C)COC(=O)OC(=O)CC(=O)OC(=O)OCC(C)C` [Clav 2, bis-((isobutoxycarbonyl)oxy)-1,3-dioxopropanoic anhydride], the “percentage of positive cases in BAT” value is listed as “no positive case” in assay [1] (setting [5]), 85.7% in assay [1] (setting [6]), 33.3% in assay [1] (setting [3]) and 56% in assay [1] (setting [4]). Moreover, in assay [1], the “stimulation indices in patients compared to controls” value is “higher stimulation indices”. In addition, the “BAT result (stimulation index)” value in assay [1] (first phase) is “positive results”. Further, in assay [1] (first phase, 25 patients selective for CLV vs 15 tolerant controls, p<0.0001 (Mann-Whitney)), the “stimulation index in patients compared to the tolerant controls” value was “significantly higher”. For the same compound, the “basophil activation after prior incubation with WTM” value in assay [2] was “IgE-mediated and specific”.
With `CCCCNC(=O)CCN` [Clav 3, 3-amino-N-butylpropanamide], in assay [1] (first phase), the “BAT result (stimulation index)” value is recorded as “only Clav 2 provided positive results”.
